# Data published in patent publication US4492650A, “A54556 Antibiotics and process for production thereof” (Eli Lilly and Company, priority 1982, dated 1985).
# Read-outs that look alike come from different tables or passages of the source. Bridge positions count the residues as written; N and C are the ends. Square brackets hold non-standard residues; d marks the D form. Peptide text beside a SMILES is read from it. * marks the point of attachment. ξ: configuration not given here. ξPro(4ξ-Me) = CC1CNC(C(=O)O)C1; NMeA = CN[CH](C)C(=O)O; X1 = O=C(/C=C/C=C/CO)*
# Legend:
# anaerobic bacteria = experiment: Activity against anaerobic bacteria; format: cell-based; conditions: agar-dilution method
# [1] = tested on: Clostridium perfringens 81; experiment: microbe, parasite or virus in culture; format: cell-based
# [2] = tested on: experimental bacterial infections; experiment: In vivo antimicrobial activity against experimental bacterial infections; conditions: mice, subcutaneously
# Protocol: (§1) When two doses of test compound were administered subcutaneously to mice in illustrative infections, the activity is measured as an ED50 value [effective does in mg./kg. to protect fifty percent of the test animals: See Warren Wick et al., J. Bacteriol. 81, 233-235 (1961)]. The ED50 values for these antibiotic A54556 factors are recorded in Table 15, which follows.
# [3] = tested on: Bacteroides corrodens 1874; experiment: MIC, agar-dilution method; format: cell-based; conditions: Eikenella corrodens
# [4] = tested on: Staphylococcus aureus V41; conditions: second test, Table 13, benzylpenicillin resistant
# [5] = tested on: Streptococcus pyogenes (Group A) C203; conditions: second test, Table 13
# [6] = tested on: Peptostreptococcus anaerobius 1428; experiment: MIC, agar-dilution method; format: cell-based
# [7] = tested on: Peptococcus asaccharolyticus 1302; experiment: MIC, agar-dilution method; format: cell-based; conditions: Peptoniphilus asaccharolyticus
# Peptococcus prevoti 1281 = experiment: MIC, agar-dilution method; format: cell-based
# [8] = tested on: Fusobacterium symbiosum 1470; experiment: MIC, agar-dilution method; format: cell-based
# [9] = tested on: Bacteroides vulgatis 1211; experiment: MIC, agar-dilution method; format: cell-based
# [10] = tested on: Staphylococcus epidermidis EPI1; conditions: second test, Table 13
# S. pyogenes = experiment: In vivo protection against experimental bacterial infection in mice; conditions: Streptococcus pyogenes, sc, two doses subcutaneously
# Protocol: as §1
# [11] = tested on: Streptococcus sp. (Group D) X66; experiment: Disc-plate sensitivity; format: cell-based; conditions: Streptococcus, second test, Table 13
# Electrometric titration = format: physicochemical; conditions: 66 percent dimethylformamide in water
# Text: Antibiotic A54556 factor A is a tan, amorphous solid. […] As determined by electron impact and field desorption mass spectrometry, A54556 factor A has a molecular weight of 718.
# [12] = tested on: Streptococcus pneumoniae Park I; conditions: second test, Table 13
# [13] = tested on: Fusobacterium necrophorum 6054A; experiment: MIC, agar-dilution method; format: cell-based
# Text: (§2) Antibiotic A54556 factors A, B, C, D, E, F, G, and H have been tested and found to be active against a number of anaerobic bacteria, as recorded in Table 14, which follows, the MIC values having been determined by the agar-dilution method.
# [14] = tested on: Clostridium difficile 2994; experiment: MIC, agar-dilution method; format: cell-based; conditions: Clostridioides difficile
# Text: as §2
# [15] = tested on: Bacteroides melaninogenicus 1856/28; experiment: MIC, agar-dilution method; format: cell-based; conditions: Prevotella intermedia
# Text: as §2
# [16] = tested on: Propionibacterium acnes 79; experiment: MIC, agar-dilution method; format: cell-based; conditions: Cutibacterium acnes
# Text: as §2
# [17] = tested on: Peptostreptococcus intermedius 1264; experiment: MIC, agar-dilution method; format: cell-based
# Text: as §2
# [18] = tested on: Eubacterium aerofaciens 1235; experiment: MIC, agar-dilution method; format: cell-based; conditions: Collinsella aerofaciens
# Text: as §2
# Bacteroides fragilis 111 = experiment: MIC, agar-dilution method; format: cell-based
# Text: as §2
# [19] = tested on: Bacteroides fragilis 1877; experiment: MIC, agar-dilution method; format: cell-based
# Text: as §2
# [20] = tested on: Bacteroides melaninogenicus 2736; experiment: MIC, agar-dilution method; format: cell-based
# Text: as §2
# [21] = tested on: Bacteroides thetaiotaomicron 1438; experiment: MIC, agar-dilution method; format: cell-based
# Text: as §2
# [22] = tested on: Clostridium septicum 1128; experiment: MIC, agar-dilution method; format: cell-based
# Text: as §2
# [23] = tested on: Bacteroides fragilis 1936B; experiment: MIC, agar-dilution method; format: cell-based
# Text: as §2
# [24] = tested on: Staphylococcus aureus 3055; conditions: second test, Table 13, benzylpenicillin-susceptible
# Culture A54556 = experiment: Sensitivity of Culture A54556 to antibiotics, sensitivity discs on ISP medium No. 2 agar; format: cell-based, Streptomyces hawaiiensis NRRL 15010; further: key: +: sensitive, zones of inhibition; -: resistant, no zones of inhibition
# Protocol: The sensitivity of Culture A54556 to several antibiotics at specific concentrations was determined with sensitivity discs padded onto the surface of plates containing ISP medium No. 2 agar seeded with 2% inoculum of Culture A54556.
compound,measurement,setting,value
CC1CC2C(=O)N(C)C(C)C(=O)NC(C)C(=O)N3CCCC3C(=O)OCC(NC(=O)C(Cc3ccccc3)NC(=O)/C=C/C=C/CO)C(=O)N2C1 (stereo not shown) [Factor H] (X1-FS[ξPro(4ξ-Me)][NMeA]AP; ester 2-C; configuration not given here),activity against a number of anaerobic bacteria,anaerobic bacteria,active
same,MIC,[1],> 128 µg/mL
same,in vivo antimicrobial activity against experimental bacterial infections,[2],have shown in vivo antimicrobial activity
same,MIC,[3],> 128 µg/mL
same,Zone diameter,[4]; 30 mcg./disc,10 mm.
same,Zone diameter,[4]; 300 mcg./disc,14 mm.
same,Zone diameter,[5]; 30 mcg./disc,30 mm.
same,Zone diameter,[5]; 300 mcg./disc,32 mm.
same,MIC,[6],128 µg/mL
same,MIC,[7],> 128 µg/mL
same,MIC,Peptococcus prevoti 1281,> 128 µg/mL
same,MIC,[8],> 128 µg/mL
same,MIC,[9],> 128 µg/mL
same,Zone diameter,[10]; 30 mcg./disc,12 mm.
same,Zone diameter,[10]; 300 mcg./disc,24 mm.
same,ED50,S. pyogenes,9.9 mg/kg
same,zone of inhibition at 30 µg/disc,"[11]; read-out: Zone diameter, 30 mcg./disc",21 mm
same,zone of inhibition at 300 µg/disc,"[11]; read-out: Zone diameter, 300 mcg./disc",27 mm
same,titratable groups,Electrometric titration,no titratable groups
same,Zone diameter,[12]; 30 mcg./disc,25 mm.
same,Zone diameter,[12]; 300 mcg./disc,36 mm.
same,MIC,[13],> 128 µg/mL
same,MIC,[14],> 128 µg/mL
same,MIC,[15],> 128 µg/mL
same,MIC,[16],> 128 µg/mL
same,MIC,[17],> 128 µg/mL
same,MIC,[18],> 128 µg/mL
same,MIC,Bacteroides fragilis 111,> 128 µg/mL
same,MIC,[19],> 128 µg/mL
same,MIC,[20],> 128 µg/mL
same,MIC,[21],> 128 µg/mL
same,MIC,[22],> 128 µg/mL
same,MIC,[23],> 128 µg/mL
same,Zone diameter,[24]; 30 mcg./disc,8 mm.
same,Zone diameter,[24]; 300 mcg./disc,11 mm.
CO[C@H]1/C=C/O[C@@]2(C)Oc3c(C)c(O)c4c(O)c(c(/C=N/N5CCN(C)CC5)c(O)c4c3C2=O)NC(=O)/C(C)=C\C=C\[C@H](C)[C@H](O)[C@@H](C)[C@@H](O)[C@@H](C)[C@H](OC(C)=O)[C@@H]1C [Rifampin],Antibiotic Sensitivity of Culture A54556,Culture A54556; 5 mcg. disc,+
"O=C(N[C@H](CO)[C@H](O)c1ccc([N+](=O)[O-])cc1)C(Cl)Cl [Chloromycetin (CAP), Chloromycetin]",Antibiotic Sensitivity of Culture A54556,Culture A54556; 30 mcg. disc,trace
CN[C@H](CC(C)C)C(=O)N[C@H]1C(=O)N[C@@H](CC(N)=O)C(=O)N[C@H]2C(=O)N[C@H]3C(=O)N[C@H](C(=O)N[C@H](C(=O)O)c4cc(O)cc(O)c4-c4cc3ccc4O)[C@H](O)c3ccc(c(Cl)c3)Oc3cc2cc(c3O[C@@H]2O[C@H](CO)[C@@H](O)[C@H](O)[C@H]2O[C@H]2C[C@](C)(N)[C@H](O)[C@H](C)O2)Oc2ccc(cc2Cl)[C@H]1O [Vancomycin],Antibiotic Sensitivity of Culture A54556,Culture A54556; 30 mcg. disc,+
CC[C@H]1OC(=O)[C@H](C)[C@@H](O[C@H]2C[C@@](C)(OC)[C@@H](O)[C@H](C)O2)[C@H](C)[C@@H](O[C@@H]2O[C@H](C)C[C@H](N(C)C)[C@H]2O)[C@](C)(O)C[C@@H](C)C(=O)[C@H](C)[C@@H](O)[C@]1(C)O [Erythromycin],Antibiotic Sensitivity of Culture A54556,Culture A54556; 15 mcg. disc,-
CO[C@@H]1[C@@H](OC(N)=O)[C@@H](O)[C@H](Oc2ccc3c(O)c(NC(=O)c4ccc(O)c(CC=C(C)C)c4)c(=O)oc3c2C)OC1(C)C [Novobiocin],Antibiotic Sensitivity of Culture A54556,Culture A54556; 30 mcg. disc,+
